For the experiment, the target named is T1, porcine tubulin (Sus scrofa, UniProt P02550+P02554).
T1 construct: purchased Cytoskeleton, Inc. BK011P
Put plainly: Tubulin polymerization inhibition test. It is filed as biochemical. As to the method:
For measuring the tubulin polymerization inhibitory action, Tubulin Polymerization Assay Kit (manufactured by Cytoskeleton, Inc., BK011P) was used. A PIPES buffer containing porcine tubulin, GTP, MgCl2, EGTA, Glycerol, and a fluorescent reporter was prepared under ice-cooling as a reaction solution. The reaction solution was ice-cooled until it was used. A test compound solution was prepared by an aqueous solution containing 1.5% DMSO, and added to a 96 well plate (manufactured by Corning Inc., 3686) at 5 μL/well. The reaction solution was added thereto at 50 μL/well, the plate was placed in a microplate reader (FlexStation 3, manufactured by Molecular Device, LLC) in which the internal temperature was set to 37° C. in advance, and the fluorescence intensity measurement (excitation wavelength: 360 nm, detection wavelength: 420 nm) of each well was started. The fluorescence intensity was measured once every minute, and the measurement was continued for 60 minutes.
The tubulin polymerization inhibition rate (%) was calculated by the following equation.
[formula] • a: average amount of fluorescence intensity increase in vehicle-treated well (n=2) • b: average amount of fluorescence intensity increase in test compound-treated well (n=2)
Amount of fluorescence intensity increase: (average fluorescence intensity after 51 to 60 minutes from measurement start)−(average fluorescence intensity after 1 to 6 minutes from measurement start)

Where [1] appears, read: porcine tubulin, 37° C., fluorescence over 60 minutes, read-out: IC50 value (tubulin polymerization inhibition).

Like-named read-outs stand apart in the source and are kept apart here. Numbered stars: 1 amine (or outer) side, 2 acyl side, 3 side chain; on linkers, the order of the positions; unused ones are H or OH. Square brackets hold non-standard residues; d marks the D form. Peptide text beside a SMILES is read from it. * marks the point of attachment. X7 = C[C@@H](N*)[C@@H](OC(=O)OCc1cn(C2OC(C(=O)O)C(O)C(O)C2O)nn1)c1ccccc1; Dolaproine = CO[C@@H]([C@@H]1CCCN1)[C@@H](C)C(=O)O; X5 = C[C@@H](N[*:1])[C@@H](OC(=O)[*:2])c1ccccc1; X10 = COCCOC(=O)O[C@@H](c1ccccc1)[C@@H](C)N*; Dil = CC[C@H](C)[C@H](NC)[C@@H](CC(=O)O)OC; X3 = C[C@@H](N*)[C@@H](OP(=O)(O)O)c1ccccc1; X6 = O=C(O)C1OC(n2cc(CN*)nn2)C(O)C(O)C1O; NMeV = CN[C@H](C(=O)O)C(C)C; X8 = c1[nH]nnc1CN*

T1 sequence (P02550 whole entry): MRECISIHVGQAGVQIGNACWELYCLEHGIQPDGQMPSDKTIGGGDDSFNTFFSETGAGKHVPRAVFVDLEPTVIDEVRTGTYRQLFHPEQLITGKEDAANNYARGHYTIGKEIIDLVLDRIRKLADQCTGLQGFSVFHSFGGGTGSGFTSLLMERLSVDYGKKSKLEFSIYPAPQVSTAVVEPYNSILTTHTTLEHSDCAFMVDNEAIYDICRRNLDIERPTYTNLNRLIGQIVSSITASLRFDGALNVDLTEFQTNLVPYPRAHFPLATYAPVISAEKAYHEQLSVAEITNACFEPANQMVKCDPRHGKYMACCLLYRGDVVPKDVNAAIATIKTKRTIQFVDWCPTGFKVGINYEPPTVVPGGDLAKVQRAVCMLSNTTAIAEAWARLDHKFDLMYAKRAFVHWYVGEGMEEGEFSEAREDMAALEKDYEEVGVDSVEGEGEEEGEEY
T1 sequence (P02554 whole entry): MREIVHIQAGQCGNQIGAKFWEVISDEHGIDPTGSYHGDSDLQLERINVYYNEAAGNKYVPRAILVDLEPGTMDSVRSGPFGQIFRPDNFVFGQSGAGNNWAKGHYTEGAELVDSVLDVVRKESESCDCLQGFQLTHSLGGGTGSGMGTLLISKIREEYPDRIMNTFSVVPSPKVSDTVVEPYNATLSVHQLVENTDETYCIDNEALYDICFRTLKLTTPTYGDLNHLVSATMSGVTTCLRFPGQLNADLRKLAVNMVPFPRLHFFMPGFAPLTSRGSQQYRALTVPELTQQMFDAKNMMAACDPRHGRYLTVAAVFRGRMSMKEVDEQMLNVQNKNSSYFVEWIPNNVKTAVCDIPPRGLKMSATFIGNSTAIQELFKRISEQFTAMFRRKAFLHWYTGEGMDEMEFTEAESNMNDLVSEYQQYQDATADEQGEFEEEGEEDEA

A word on the IC50: it is the concentration that gives 50% inhibition. Regarding `CC[C@H](C)[C@@H]([C@@H](CC(=O)N1CCC[C@H]1[C@H](OC)[C@@H](C)C(=O)N[C@H](C)[C@@H](OC(=O)OCCOC)c1ccccc1)OC)N(C)C(=O)[C@@H](NC(=O)[C@@H](NC)C(C)C)C(C)C` [Example U-012] (H-[NMeV]V[Dil][Dolaproine]-X10), the IC50 under setting [1] was no more than 3 µM.

Consider `CC[C@H](C)[C@@H]([C@@H](CC(=O)N1CCC[C@H]1[C@H](OC)[C@@H](C)C(=O)N[C@H](C)[C@@H](O)c1ccccc1)OC)N(C)C(=O)[C@@H](NC(=O)[C@H](C(C)C)N(C)CCONC)C(C)C` [Example U-013], for which the concentration for half-maximal inhibition (IC50) under setting [1] was no more than 3 µM.

In the case of `CC[C@H](C)[C@@H]([C@@H](CC(=O)N1CCC[C@H]1[C@H](OC)[C@@H](C)C(=O)N[C@H](C)[C@@H](OC(=O)NCCOCCOCCOCCOCCOCCOCCOCCOCCOCCOCCOCCOC)c1ccccc1)OC)N(C)C(=O)[C@@H](NC(=O)[C@@H](NC)C(C)C)C(C)C` [Example U-015], the IC50 under setting [1] is no more than 3 µM.

Turning to `CC[C@H](C)[C@@H]([C@@H](CC(=O)N1CCC[C@H]1[C@H](OC)[C@@H](C)C(=O)N[C@H](C)[C@@H](O)c1ccccc1)OC)N(C)C(=O)[C@@H](NC(=O)[C@H](C(C)C)N(C)CCc1ccc(N)cc1F)C(C)C` [Example U-016], the IC50 under setting [1] was no more than 3 µM.

The molecule `CC[C@H](C)[C@@H]([C@@H](CC(=O)N1CCC[C@H]1[C@H](OC)[C@@H](C)C(=O)N[C@H](C)[C@@H](O)c1ccccc1)OC)N(C)C(=O)[C@@H](NC(=O)[C@H](C(C)C)N(C)CCCC(=O)N[C@H]1CCc2c(C)c(F)cc3nc4c(c1c23)Cn1c-4cc2c(c1=O)COC(=O)[C@]2(O)CC)C(C)C` [Example U-017] showed a 50% inhibitory concentration (IC50) of no more than 3 µM.

In the case of `CC[C@H](C)[C@@H]([C@@H](CC(=O)N1CCC[C@H]1[C@H](OC)[C@@H](C)C(=O)N[C@H](C)[C@@H](OC(=O)NCc1cn(C2OC(C(=O)O)C(O)C(O)C2O)nn1)c1ccccc1)OC)N(C)C(=O)[C@@H](NC(=O)[C@@H](NC)C(C)C)C(C)C` (stereo partly shown) [Example U-019] (H-[NMeV]V[Dil][Dolaproine][X5]-X6), the IC50 under setting [1] is no more than 3 µM.

Consider `CC[C@H](C)[C@@H]([C@@H](CC(=O)N1CCC[C@H]1[C@H](OC)[C@@H](C)C(=O)N[C@H](C)[C@@H](OC(=O)OCc1cn(C2OC(C(=O)O)C(O)C(O)C2O)nn1)c1ccccc1)OC)N(C)C(=O)[C@@H](NC(=O)[C@@H](NC)C(C)C)C(C)C` (stereo partly shown) [Example U-020] (H-[NMeV]V[Dil][Dolaproine]-X7), for which, under setting [1], the 50% inhibitory concentration (IC50) is no more than 3 µM.

Take `CC[C@H](C)[C@@H]([C@@H](CC(=O)N1CCC[C@H]1[C@H](OC)[C@@H](C)C(=O)N[C@H](C)[C@@H](OC(=O)NCc1c[nH]nn1)c1ccccc1)OC)N(C)C(=O)[C@@H](NC(=O)[C@@H](NC)C(C)C)C(C)C` [Example U-021] (H-[NMeV]V[Dil][Dolaproine][X5]-X8): the IC50 under setting [1] is no more than 3 µM.

For the molecule `CC[C@H](C)[C@@H]([C@@H](CC(=O)N1CCC[C@H]1[C@H](OC)[C@@H](C)C(=O)N[C@H](C)[C@@H](OP(=O)(O)O)c1ccccc1)OC)N(C)C(=O)[C@@H](NC(=O)[C@@H](NC)C(C)C)C(C)C` [Example U-030] (H-[NMeV]V[Dil][Dolaproine]-X3), under setting [1], the 50% inhibitory concentration (IC50) is no more than 3 µM.

As for `CC[C@H](C)[C@@H]([C@@H](CC(=O)N1CCC[C@H]1[C@H](OC)[C@@H](C)C(=O)N[C@H](C)[C@@H](OP(=O)(O)O)c1ccccc1)OC)N(C)C(=O)[C@@H](NC(=O)[C@H](C(C)C)N(C)C)C(C)C` [Example U-031], the IC50 under setting [1] was no more than 3 µM.
